Measured values reported in US8273775B2, “Non-steroidal brassinosteroid mimetic” (priority 2006, dated 2012).

System: gene expression in Col-0 seedling shoots
Assay: Microarray analysis (ATH1 Affymetrix) after BL or abrasin treatment
Assay type: in vivo, Arabidopsis
Protocol: FIG. 14: Clustering of gene expression profiles by QT-clust analysis. Clusters illustrating the major patterns of the data sets. Points: BIK-30: 30 μM abrasin 30 min; BL-30: 1 μM brassinolide 30 min; DMSO-30: control DMSO 30 min; BIK-120: 30 μM abrasin 120 min; BL-120: 1 μM brassinolide 120 min; DMSO-120: control DMSO 120 min.
Col-0 seeds were germinated vertically on ½ MS medium for 7 days under 16 h light/8 h dark cycles. The seedlings were overlaid with liquid ½ MS medium containing 1 μM brassinolide (BL, Fuji Chemical Industries, Ltd., Toyama, Japan), 30 μM abrasin (BIK, ChemBridge Corporation) and DMSO and treated for 30 and 120 min. The shoot parts were collected for RNA isolation. All sampling points were performed in three independent experiments. RNA was extracted using RNeasy kit (Qiagene). […] total RNA per array was used to hybridise the ATH1 Affymetrix Arabidopsis arrays according to standard procedure. The overrepresentation analyses were performed using BiNGO software (Maere et al., 2005).
We performed a microarray analysis using the Arabidopsis whole genome chip (Affymetix) to determine whether abrasin activated the expression of BR-inducible genes at transcriptional level. Wild-type Col-0 seedlings were exposed to 1 μM BL, 30 μM ABRASIN and DMSO (mock-treatment) for two time points (30 min and 120 min) and the shoot parts were collected for RNA isolation. The analysis of the variance of the normalized gene expression data took in account the variability parameters affecting the expression level: type of hormone treatment, duration of treatment and the interaction between these two.

## O=C(O)CCC(=O)Nc1ccc(Br)cn1 [abrasin, 4-[(5-bromo-2-pyridinyl)amino]-4-oxobutanoic acid]
1 μM BL, 30 μM ABRASIN
  expression of BR biosynthesis genes (CPD, DWF4, BR6OX2), Cluster 1: down-regulated
  expression of WRKY transcription factors, DOF-type proteins, lectin receptor-like kinases, U-box proteins, HAESA: induces the expression
  expression of genes involved in the auxin pathway (IAA29, IAA2): significantly down-regulated
1 μM BL, 30 μM ABRASIN, 30 and 120 min
  induction of early auxin-inducible SAUR family genes, Cluster 3: had an effect only after 2 hours
30 min
  Fold-change AT1G04330 expressed protein: 1.17
  Fold-change AT1G05470 endonuclease/exonuclease/phosphatase family protein: 1.42
  Fold-change AT1G06520 Encodes a membrane associated mitochondrial localized protein: 1.26
  Fold-change AT1G06570 4-hydroxyphenylpyruvate dioxygenase (HPD): 0.91
  Fold-change AT1G10550 xyloglucan:xyloglucosyl transferase: 1.26
  Fold-change AT1G12710 F-box family protein: 0.88
  Fold-change AT1G12750 rhomboid family protein: 1.46
  Fold-change AT1G14130 2-oxoglutarate-dependent dioxygenase: 1.10
  Fold-change AT1G14700 purple acid phosphatase: 0.53
  Fold-change AT1G16640 transcriptional factor B3 family protein: 1.14
  Fold-change AT1G17230 leucine-rich repeat family protein: 1.09
  Fold-change AT1G18020; AT1G17990 [AT1G18020, 12-oxophytodienoate reductase,: 1.31
  Fold-change AT1G19320 pathogenesis-related thaumatin family protein: 0.52
  Fold-change AT1G20350 mitochondrial import inner membrane translocase subunit: 1.00
  Fold-change AT1G21050 expressed protein: 0.32
  Fold-change AT1G21760 F-box family protein: 0.76
  Fold-change AT1G22360 UDP-glucoronosyl/UDP-glucosyl transferase family protein: 0.82
  Fold-change AT1G23080 auxin efflux carrier protein (PIN7): 0.81
  Fold-change AT1G26800 zinc finger (C3HC4-type RING finger) family protein,: 1.07
  Fold-change AT1G27730 zinc finger (C2H2 type) family protein: 0.56
  Fold-change AT1G28130 encodes an IAA-amido synthase: 0.64
  Fold-change AT1G28190 expressed protein: 2.79
  Fold-change AT1G28480 glutaredoxin family protein: 1.02
  Fold-change AT1G31040 zinc-binding protein-related: 1.35
  Fold-change AT1G31310 hydroxyproline-rich glycoprotein family protein: 1.17
  Fold-change AT1G31770 ABC transporter family protein: 0.91
  Fold-change AT1G32190 expressed protein: 0.73
  Fold-change AT1G32690 expressed protein: 0.38
  Fold-change AT1G36940 expressed protein: 0.45
  Fold-change AT1G49780 U-box domain-containing protein: 0.71
  Fold-change AT1G53870; AT1G53890 [AT1G53870, expressed protein: 0.43
  Fold-change AT1G54050 17.4 kDa class III heat shock protein (HSP17.4-CIII): 1.16
  Fold-change AT1G54200 expressed protein: 1.26
  Fold-change AT1G55920 serine O-acetyltransferase: 2.19
  Fold-change AT1G57560 myb family transcription factor (MYB50): 1.19
  Fold-change AT1G59590 expressed protein: 1.99
  Fold-change AT1G59660 nucleoporin family proteinmily: 1.45
  Fold-change AT1G62300 WRKY family transcription factor: 1.58
  Fold-change AT1G63050 membrane bound O-acyl transferase (MBOAT) family protein: 0.75
  Fold-change AT1G66160 U-box domain-containing protein,: 2.03
  Fold-change AT1G66890 expressed protein: 0.65
  Fold-change AT1G68330 expressed protein: 1.76
  Fold-change AT1G68810 basic helix-loop-helix (bHLH) family protein: 0.80
  Fold-change AT1G69160 expressed protein: 0.67
  Fold-change AT1G70990 proline-rich family protein: 1.70
  Fold-change AT1G71030 Encodes a putative myb family transcription factor: 0.92
  Fold-change AT1G72060 expressed protein: 2.19
  Fold-change AT1G72180 leucine-rich repeat transmembrane protein kinase: 0.54
  Fold-change AT1G72800 nuM1-related, contains: 1.15
  Fold-change AT1G75270 dehydroascorbate reductase: 1.16
  Fold-change AT1G75500 nodulin MtN21 family protein: 0.67
  Fold-change AT1G76240 expressed protein,: 0.40
  Fold-change AT1G76410 zinc finger (C3HC4-type RING finger): 0.54
  Fold-change AT1G79110 expressed protein: 0.66
  Fold-change AT1G79630 protein phosphatase 2C family protein: 0.62
  Fold-change AT1G80440 kelch repeat-containing F-box family protein: 1.36
  Fold-change AT2G01300 expressed protein: 0.73
  Fold-change AT2G01990 expressed protein,: 1.89
  Fold-change AT2G04240 zinc finger (C3HC4-type RING finger) family protein: 0.77
  Fold-change AT2G05540 glycine-rich protein: 0.71
  Fold-change AT2G12290; AT4G19700 [AT2G12290, expressed protein]; [AT4G19700, expressed protein]: 0.38
  Fold-change AT2G18010 auxin-responsive family protein (SAUR10): 1.35
  Fold-change AT2G19800 expressed protein: 2.29
  Fold-change AT2G22860 phytosulfokines 2 (PSK2): 0.68
  Fold-change AT2G23180 cytochrome P450, putative: 0.67
  Fold-change AT2G23320 WRKY family transcription factor: 1.41
  Fold-change AT2G26530 expressed protein: 1.24
  Fold-change AT2G26710 cytochrome p450 family (BAS1): 0.72
  Fold-change AT2G28510 Dof-type zinc finger domain-containing protein: 1.28
  Fold-change AT2G29340 short-chain dehydrogenase/reductase (SDR) family protein: 1.55
  Fold-change AT2G29990 pyridine nucleotide-disulphide oxidoreductase family protein: 1.43
  Fold-change AT2G30070 potassium transporter (KUP1): 0.61
  Fold-change AT2G31230 encodes a member of the ERF (ethylene response factor): 2.13
  Fold-change AT2G34650 protein kinase PINOID (PID): 1.04
  Fold-change AT2G36220 expressed protein: 1.10
  Fold-change AT2G37590 Dof-type zinc finger domain-containing protein: 1.52
  Fold-change AT2G38470 WRKY family transcription factor: 2.02
  Fold-change AT2G39710 aspartyl protease family protein: 2.42
  Fold-change AT2G40340; AT2G40350 [AT2G40340, encodes a member of the DREB subfamily A-2 of ERF/AP2: 1.40
  Fold-change AT2G41250 haloacid dehalogenase-like hydrolase family protein: 0.82
  Fold-change AT2G41640 expressed protein: 1.96
  Fold-change AT2G42280 basic helix-loop-helix (bHLH) family protein: 0.67
  Fold-change AT2G43060 expressed protein, similar to cDNA bHLH transcription factor: 0.31
  Fold-change AT2G43280 far-red impaired responsive family protein: 0.78
  Fold-change AT2G43290 calmodulin-like protein (MSS3): 0.81
  Fold-change AT2G44130 kelch repeat-containing F-box family protein: 1.13
  Fold-change AT2G44500 expressed protein: 1.26
  Fold-change AT2G45210 auxin-responsive protein-related: 0.34
  Fold-change AT2G45680 TCP family transcription factor: 0.50
  Fold-change AT2G46225 Encodes a subunit of the WAVE complex: 1.15
  Fold-change AT2G47440 DNAJ heat shock N-terminal domain-containing protein: 1.07
  Fold-change AT3G04210 disease resistance protein (TIR-NBS class), putative,: 2.18
  Fold-change AT3G09920 phosphatidylinositol-4-phosphate 5-kinase family protein: 1.56
  Fold-change AT3G12920 expressed protein: 0.45
  Fold-change AT3G13040 myb family transcription factor: 0.93
  Fold-change AT3G13510 expressed protein: 0.85
  Fold-change AT3G13980 expressed protein: 0.25
  Fold-change AT3G14370 protein kinase family protein: 1.10
  Fold-change AT3G14560 expressed protein: 0.59
  Fold-change AT3G16570 rapid alkalinization factor (RALF) family protein: 0.54
  Fold-change AT3G17860 expressed protein: 0.78
  Fold-change AT3G18830 polyol/cyclitol/monosaccharide-H+-symporte: 1.64
  Fold-change AT3G19380 U-box domain-containing protein: 0.67
  Fold-change AT3G23030 auxin-responsive protein/indoleacetic acid-induced protein 2 (IAA2): 0.55
  Fold-change AT3G23550 MATE efflux family protein: 0.67
  Fold-change AT3G25710 basic helix-loop-helix (bHLH) family protein: 0.48
  Fold-change AT3G25900 homocysteine S-methyltransferase 1 (HMT-1): 1.32
  Fold-change AT3G26910 hydroxyproline-rich glycoprotein family protein: 2.49
  Fold-change AT3G30180 cytochrome p450 enzyme: 0.09
  Fold-change AT3G46880 expressed protein,: 1.50
  Fold-change AT3G47800 aldose 1-epimerase family protein: 0.91
  Fold-change AT3G48970 copper-binding family protein: 0.40
  Fold-change AT3G49810 U-box domain-containing protein: 1.29
  Fold-change AT3G50650 scarecrow-like transcription factor 7 (SCL7): 1.51
  Fold-change AT3G50660 steroid 22-alpha-hydroxylase (CYP90B1) (DWF4): 0.47
  Fold-change AT3G50750 brassinosteroid signalling positive regulator-related (BEH1): 0.63
  Fold-change AT3G52490 heat shock protein-related: 1.17
  Fold-change AT3G53810 lectin protein kinase: 2.28
  Fold-change AT3G54950 patatin-related,: 0.58
  Fold-change AT3G55120 chalcone-flavanone isomerase: 0.94
  Fold-change AT3G55150 exocyst subunit EXO70 family protein: 3.44
  Fold-change AT3G55840 expressed protein: 1.05
  Fold-change AT3G61460 zinc finger (C3HC4-type RING finger) family protein (BRH1): 0.43
  Fold-change AT3G63300 expressed protein: 1.26
  Fold-change AT4G01680 myb family transcription factor (MYB55): 0.21
  Fold-change AT4G02410 lectin protein kinase family protein: 2.60
  Fold-change AT4G08040 1-aminocyclopropane-1-carboxylate synthase, putative: 0.08
  Fold-change AT4G09460 myb family transcription factor: 1.50
  Fold-change AT4G12390 invertase/pectin methylesterase inhibitor family protein: 0.75
  Fold-change AT4G12410 auxin-responsive family protein: 0.66
  Fold-change AT4G14130 xyloglucan:xyloglucosyl transferase: 0.37
  Fold-change AT4G15975 zinc finger (C3HC4-type RING finger) family protein: 2.33
  Fold-change AT4G16146 expressed protein: 0.91
